One assay concerns Nrf2. Put plainly: Nrf2 antagonism assay: ARE luciferase reporter in KYSE-70 cells. The following applies: positive Imax corresponds to Nrf2 antagonism; for Emax: Homo sapiens, KYSE-70, KYSE-70 cells, read-out: KYSE70 Cellular ARE Luciferase Imax (%). It counts as cell-based. The text has this: NRF2 binds to a promoter region, antioxidant response element (ARE), to initiate expression of multiple genes. ARE luciferase reporter assays are used to test whether a ligand can activate or repress the expression of target genes using luciferase as a reporter gene.
KYSE-70 is an esophageal squamous cell carcinoma cell line with a Nrf2 mutation at amino acid position W24C. This mutation lowers the affinity between the E3 ligase that includes KEAP1 and Nrf2, resulting in a state in which the synthesis rate of new Nrf2 is faster than the E3's degradation rate of Nrf2, resulting in a “Nrf2 high” state. In KYSE-70 cells, genes are inserted directly after the ARE that trigger the expression of luciferase. Without a NRF2 antagonist in this modified KYSE70 cell line which has an inherently “NRF2 high state”, luciferase is expressed, and a signal is observed.
Nrf2 antagonists bind at C151 of KEAP1 and stabilize the E3 which results in an increased degradation rate of Nrf2. Increased degradation of Nrf2 results in less expression of luciferase, and therefore a less intense signal.
An IC50 is generated from the dose-response curve and an Imax. A positive Imax corresponds to Nrf2 antagonism. Imax >90% correlates with in vivo tumor grown inhibition. Compounds with Imax >50% were included in this description.
On the technique in general: A reporter such as luciferase makes a cellular process visible.

The target in another assay is T1, KEAP1 C151 (Homo sapiens, UniProt Q14145).
T1 construct: treating 500 μg of cell lysate generated from MDA-MB-468 breast cancer cells with DMSO or compound; endogenous in cells; host or cells: MDA-MB-468 breast cancer cell lysate
T1 sequence (Q14145 whole entry): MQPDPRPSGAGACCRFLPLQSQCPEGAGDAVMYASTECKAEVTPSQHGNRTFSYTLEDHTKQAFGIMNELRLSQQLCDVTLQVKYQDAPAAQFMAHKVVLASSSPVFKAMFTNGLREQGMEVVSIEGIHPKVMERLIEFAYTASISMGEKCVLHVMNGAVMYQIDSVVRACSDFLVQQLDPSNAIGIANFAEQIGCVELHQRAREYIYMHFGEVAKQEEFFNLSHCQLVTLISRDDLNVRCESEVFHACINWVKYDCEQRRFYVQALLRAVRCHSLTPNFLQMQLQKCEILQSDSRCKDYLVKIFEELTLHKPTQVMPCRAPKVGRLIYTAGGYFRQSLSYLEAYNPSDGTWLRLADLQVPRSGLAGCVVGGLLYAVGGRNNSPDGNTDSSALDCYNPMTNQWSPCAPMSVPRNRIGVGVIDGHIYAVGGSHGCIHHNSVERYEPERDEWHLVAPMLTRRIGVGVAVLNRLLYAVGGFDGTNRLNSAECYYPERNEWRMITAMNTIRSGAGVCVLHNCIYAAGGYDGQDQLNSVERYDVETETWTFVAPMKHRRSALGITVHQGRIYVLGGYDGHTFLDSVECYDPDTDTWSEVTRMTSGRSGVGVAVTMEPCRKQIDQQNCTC
Put plainly: Nrf2 TMT measurement: in vitro TE50 for KEAP1 C151 (IA-DTB competition, targeted TMT mass spectrometry) in MDA-MB-468 cell lysate. The format is binding. The following applies: in vitro target engagement of KEAP1 C151, targeted TMT, read-out: KEAP1_C151 TE50. As for the experimental part:
In vitro TE50 values for KEAP_C151 were obtained by treating 500 μg of cell lysate generated from MDA-MB-468 breast cancer cells with DMSO or compound for 1 hour at room temperature followed by the addition of 200 μM IA-DTB (in DMSO) for one hour at room temperature. Samples were then precipitated by the addition of 8× ice cold acetonitrile and incubated at −80° C. for two hours. Protein was then pelleted by centrifugation (4,200 RPM, 45 min, 4° C.). The pelleted material was resuspended in 9M Urea, 50 mM ammonium bicarbonate and proteins were reduced and alkylated by the addition of DTT and iodoacetamide (10 and 30 mM, respectively). Following reduction and alkylation, samples were exchanged into 2M urea (Zeba spin desalting plates, Thermo Fisher) and digested with Trypsin. IA-DTB labeled peptides were isolated with streptavidin agarose resin. Enriched peptides were eluted by the addition of 50% acetonitrile (ACN) 0.1% Formic Acid (FA) and dried in a SpeedVac vacuum concentrator.
Dried peptides were resuspended in 0.2 M EPPS pH 8.5 and treated with 6.5 μL of 11-plex tandem mass tag (TMT) (8.3 μg/μL in dry ACN) for 2 hours at room temperature. Reactions were quenched by the addition of 6.5 μL of 5% Hydroxylamine. Samples were then combined and desalted on a Biotage Evolute express ABN plate (600-0010-PX01).
Targeted TMT. Targeted TMT measurements were collected using an Orbitrap LumosTribrid Mass Spectrometer (Thermo Scientific) coupled to an UltiMate 3000 Series Rapid Separation LC system and autosampler (Thermo Scientific Dionex). Peptides were eluted onto a custom C18 capillary analytical column (75-μm inner diameter fused silica, packed with Acclaim PepMap C18 resin (Thermo Scientific)) using an Acclaim PepMap 100 (Thermo 164535) loading column, and separated at a flow rate of 1.0 μl min−1. Data were acquired using a specific MS3-based TMT method targeting the peptide containing KEAP1 C151 (C(+324.2)[…], +3 charge state) where MS2 peptide fragmentation is triggered upon detection of the peptide precursor ion. Subsequent MS3 analysis was then performed using pre-selected peptide fragment ions that were isolated for fragmentation using synchronous precursor selection. RAW files were converted to MZXML format and searched with the SEQUEST algorithm using the MassPike software package. TMT quantitation was performed with a filter requiring at least ten summed signal-to-noise for control channels. Quantified signals were used for dose response curve-fitting and IC50 calculation using R's drc package.

We go through 25 compounds from patent US20260207621A1 (Vividion Therapeutics, Inc., priority 2022, published 2026).

Take `C=CC(=O)N1[C@H](C)COC[C@H]1c1cc(Cl)cc(-c2ccnc(N3CCCC3=O)c2)c1` (single isomer, unassigned) [Compound 18]: the Emax with Nrf2 stood at 69%. In addition, the IC50 at KEAP1 C151 amounted to 10 nM.
The corresponding values for `C=CC(=O)N1CCOC[C@H]1c1cc(Cl)cc(-c2ncc(F)cn2)c1` (single isomer, unassigned) [Compound 19] are 84% and 33 nM.
The corresponding values for `C=CC(=O)N1CCN(C(C)=O)C[C@H]1c1cc(Cl)cc(C2CCOCC2)c1` (single isomer, unassigned) [Compound 26] are 56% and 88 nM.
For `C=CC(=O)N1CCS(=O)(=O)CC1c1cc(Cl)cc(-c2ncccn2)c1` (single isomer, unassigned) [Compound 31, 1-(3-(3-chloro-5-(pyrimidin-2-yl)phenyl)-1,1-dioxidothiomorpholino)prop-2-en-1-one], in that order: 66% and 36 nM.
In the case of `C=CC(=O)N1CCS(=O)(=O)CC1c1cc(Cl)cc(-c2nnn(C)n2)c1` (single isomer, unassigned) [Compound 32, 1-(3-(3-chloro-5-(2-methyl-2H-tetrazol-5-yl)phenyl)-1,1-dioxidothiomorpholino)prop-2-en-1-one], the Emax in the assay with Nrf2 was 52%. Also, the IC50 on KEAP1 C151 was found to be 63 nM.
For `C=CC(=O)N1CCOCC1c1cc(Cl)nc(-c2cc[nH]c(=O)c2)c1` (single isomer, unassigned) [Compound 33, 4-(4-acryloylmorpholin-3-yl)-6-chloro-[2,4′-bipyridin]-2′(1′H)-one], in that order: 82% and 120 nM.
With `C=CC(=O)N1CCOCC1c1cc(Cl)cc(-c2ccc3nccnc3c2)c1` (single isomer, unassigned) [Compound 34, 1-(3-(3-chloro-5-(quinoxalin-6-yl)phenyl)morpholino)prop-2-en-1-one], the Emax in the assay with Nrf2 was 83%. At KEAP1 C151, the IC50 was found to be 18 nM.
On to `C=CC(=O)N1CCOCC1c1cc(Cl)cc(-c2ccnc(C)n2)c1` (single isomer, unassigned) [Compound 35, 1-(3-(3-chloro-5-(2-methylpyrimidin-4-yl)phenyl)morpholino)prop-2-en-1-one], for which, in the assay on Nrf2, the Emax amounted to 89%. Besides, the IC50 at KEAP1 C151 came out at 17.8 nM.
For `C=CC(=O)N1CCOCC1c1cc(Cl)cc(-c2cccn(C)c2=O)c1` (single isomer, unassigned) [Compound 36, 3-(3-(4-acryloylmorpholin-3-yl)-5-chlorophenyl)-1-methylpyridin-2(1H)-one], in that order: 69% and 110 nM.
The corresponding values for `C=CC(=O)N1CCOCC1c1cc(Cl)cc(-c2cnc3cccnc3c2)c1` (single isomer, unassigned) [Compound 37, 1-(3-(3-chloro-5-(1,5-naphthyridin-3-yl)phenyl)morpholino)prop-2-en-1-one] are 85% and 22 nM.
As for `C=CC(=O)N1CCOCC1c1cc(Cl)cc(-c2cc(C)ncn2)c1` (single isomer, unassigned) [Compound 38, 1-(3-(3-chloro-5-(6-methylpyrimidin-4-yl)phenyl)morpholino)prop-2-en-1-one], in the assay with Nrf2, the Emax turned out to be 89%. The IC50 on KEAP1 C151 amounted to 27 nM.
The corresponding values for `C=CC(=O)N1CCS(=O)(=O)CC1c1cc(Cl)cc(-c2cc[nH]c(=O)c2)c1` (single isomer, unassigned) [Compound 39, 4-(3-(4-acryloyl-1,1-dioxidothiomorpholin-3-yl)-5-chlorophenyl)pyridin-2(1H)-one] are 66% and 49 nM.
For `C=CC(=O)N1CCOCC1c1cc(Cl)cc(-c2ccnc(N)n2)c1` (single isomer, unassigned) [Compound 40, 1-(3-(3-(2-aminopyrimidin-4-y1)-5-chlorophenyl)morpholino)prop-2-en-1-one], in that order: 93% and 40 nM.
The corresponding values for `C=CC(=O)N1CCOCC1c1cc(Cl)cc(-c2nc[nH]n2)c1` (single isomer, unassigned) [Compound 41, 1-(3-(3-chloro-5-(1H-1,2,4-triazol-3-yl)phenyl)morpholino)prop-2-en-1-one] are 68% and 200 nM.
`C=CC(=O)N1CCOCC1c1cc(Cl)cc(-c2ccncn2)c1` (single isomer, unassigned) [Compound 42, 1-(3-(3-chloro-5-(pyrimidin-4-yl)phenyl)morpholino)prop-2-en-1-one]: the Emax with Nrf2 was 79%. On KEAP1 C151, the IC50 was 37 nM.
For `C=CC(=O)N1CCOCC1c1cc(Cl)cc(-c2ccn3ccnc3c2)c1` (single isomer, unassigned) [Compound 43, 1-(3-(3-chloro-5-(imidazo[1,2-a]pyridin-7-yl)phenyl)morpholino)prop-2-en-1-one], in that order: 87% and 25 nM.
Regarding `C=CC(=O)N1CCOC[C@H]1c1cc(Cl)cc(-c2ccc(F)c(C(N)=O)c2)c1` (single isomer, unassigned) [Compound 44], in the assay with Nrf2, the Emax turned out to be 93%. The IC50 at KEAP1 C151 was found to be 15.7 nM.
Turning to `C=CC(=O)N1CC(C)(C)OC[C@H]1c1cc(Cl)cc(-c2ncc(F)cn2)c1` (single isomer, unassigned) [Compound 45], the Emax in the assay on Nrf2 was found to be 83%. Besides, the IC50 at KEAP1 C151 is 89 nM.
For `C=CC(=O)N1CC(C)(C)OC[C@H]1c1cc(Cl)cc(-c2cc(C)ncn2)c1` (single isomer, unassigned) [Compound 46], the Emax with Nrf2 is 84%. At KEAP1 C151, the IC50 worked out at 140 nM.
The corresponding values for `C=CC(=O)N1CC(C)(C)OC[C@H]1c1cc(Cl)cc(-c2ccc3nccnc3c2)c1` (single isomer, unassigned) [Compound 47] are 74% and 20 nM.
Turning to `C=CC(=O)N1CC(C)(C)OC[C@H]1c1cc(Cl)cc(-c2ccnc(C)n2)c1` (single isomer, unassigned) [Compound 48], the Emax with Nrf2 came to 85%. At KEAP1 C151, the IC50 was found to be 66 nM.
With `C=CC(=O)N1CCOCC1c1cc(Cl)cc(-c2ccnc(OC)n2)c1` (single isomer, unassigned) [Compound 49, 1-(3-(3-chloro-5-(2-methoxypyrimidin-4-yl)phenyl)morpholino)prop-2-en-1-one], the Emax with Nrf2 was 91%. Moreover, the IC50 at KEAP1 C151 is 42 nM.
Consider `C=CC(=O)N1CCS(=O)(=O)CC1c1cc(Cl)cc(-c2ccnc(C)n2)c1` (single isomer, unassigned) [Compound 50, 1-(3-(3-chloro-5-(2-methylpyrimidin-4-yl)phenyl)-1,1-dioxidothiomorpholino)prop-2-en-1-one], for which, in the assay with Nrf2, the Emax was determined as 86%. Besides, the IC50 on KEAP1 C151 came out at 573 nM.
Take `C=CC(=O)N1CCS(=O)(=O)CC1c1cc(Cl)cc(-c2ccnc(C)n2)c1` (single isomer, unassigned) [Compound 51, 1-(3-(3-chloro-5-(2-methylpyrimidin-4-yl)phenyl)-1,1-dioxidothiomorpholino)prop-2-en-1-one]: the “KYSE70 Cellular ARE Luciferase Imax (%)” value with Nrf2 (KYSE-70 cells) is on record as 89%. Further, the IC50 at KEAP1 C151 was determined as 237 nM.
For the compound `C=CC(=O)N1CCS(=O)(=O)CC1c1cc(Cl)cc(-c2cc(C)ncn2)c1` (single isomer, unassigned) [Compound 52, 1-(3-(3-chloro-5-(6-methylpyrimidin-4-yl)phenyl)-1,1-dioxidothiomorpholino)prop-2-en-1-one], the Emax with Nrf2 is 80%. Also, the IC50 at KEAP1 C151 was 174 nM.
